{"source": "ChEMBL document CHEMBL5620409", "about": "“Discovery of tetrasubstituted thiophenes as Cisd2 activators: A potential novel therapeutic option in nonalcoholic fatty liver disease” (Eur J Med Chem, 2023)", "key": {"[1]": {"test": "Metabolic stability in mouse liver microsomes assessed as parent compound remaining at 5 uM in presence of NADPH-generating system measured for 30 mins by LC/MS analysis", "type": "ADME, Microsome", "settings": "read-out: Stability"}, "[2]": {"target": "T1, CDGSH iron-sulfur domain-containing protein 2 (Homo sapiens, UniProt Q8N5K1)", "T1 sequence (Q8N5K1 whole entry)": "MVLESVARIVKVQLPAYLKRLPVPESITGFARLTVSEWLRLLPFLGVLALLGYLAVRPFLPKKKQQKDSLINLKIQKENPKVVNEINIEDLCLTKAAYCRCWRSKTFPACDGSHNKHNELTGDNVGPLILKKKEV", "test": "Activation of Cisd2 (unknown origin) transfected in HEK293 cells incubated for 24 hrs by one-glo luciferase assay", "type": "cell-based"}, "Mus musculus [3]": {"tested_on": "Mus musculus", "test": "Anti-NAFLD activity in heterozygous hepatocyte-specific Cisd2 knockout C57BL/6 mouse assessed as fold increase in Cisd2 expression in liver at 20 mg/kg, po measured for 12 week by Western blot analysis", "type": "functional", "settings": "time 12 weeks"}, "Mus musculus [4]": {"tested_on": "Mus musculus", "test": "Anti-NAFLD activity in wild type C57BL/6 mouse assessed as effect on triglyceride level in serum at 20 mg/kg, po measured for 12 week", "type": "functional, organism-based", "settings": "time 12.0 weeks"}, "Mus musculus [5]": {"tested_on": "Mus musculus", "test": "Anti-NAFLD activity in wild type C57BL/6 mouse assessed as fold increase in Cisd2 expression in liver at 20 mg/kg, po measured for 12 week by Western blot analysis", "type": "functional", "settings": "time 12 weeks"}, "[6]": {"test": "Toxicity in heterozygous hepatocyte-specific Cisd2 knockout C57BL/6 mouse assessed as effect on GPT level in serum at 20 mg/kg, po administered for 2 weeks", "type": "organism-based", "settings": "in vivo, 336 h"}, "[7]": {"test": "Toxicity in heterozygous hepatocyte-specific Cisd2 knockout C57BL/6 mouse assessed as effect on GOT level in serum at 20 mg/kg, po administered for 2 weeks", "type": "organism-based", "settings": "in vivo, 336 h"}, "[8]": {"test": "Toxicity in wild type C57BL/6 mouse assessed as effect on CRE level in serum at 20 mg/kg, po administered for 2 weeks", "type": "organism-based", "settings": "in vivo, 336 h"}, "[9]": {"test": "Toxicity in wild type C57BL/6 mouse assessed as change in liver histology at 20 mg/kg, po administered for 2 weeks", "type": "organism-based", "settings": "in vivo, 336 h"}, "[10]": {"test": "Toxicity in wild type C57BL/6 mouse assessed as effect on GOT level in serum at 20 mg/kg, po administered for 2 weeks", "type": "organism-based", "settings": "in vivo, 336 h"}, "[11]": {"test": "Toxicity in heterozygous hepatocyte-specific Cisd2 knockout C57BL/6 mouse assessed as effect on ALT level in serum at 20 mg/kg, po administered for 2 weeks", "type": "organism-based", "settings": "in vivo, 336 h"}, "[12]": {"test": "Toxicity in wild type C57BL/6 mouse assessed as effect on body weight at 20 mg/kg, po measured for 2 weeks", "type": "organism-based", "settings": "in vivo, 336 h"}, "[13]": {"test": "Toxicity in wild type C57BL/6 mouse assessed as effect on AST level in serum at 20 mg/kg, po administered for 2 weeks", "type": "organism-based", "settings": "in vivo, 336 h"}, "[14]": {"test": "Toxicity in wild type C57BL/6 mouse assessed as effect on ALT level in serum at 20 mg/kg, po administered for 2 weeks", "type": "organism-based", "settings": "in vivo, 336 h"}, "Mus musculus [15]": {"tested_on": "Mus musculus", "test": "Anti-NAFLD activity in heterozygous hepatocyte-specific Cisd2 knockout C57BL/6 mouse assessed as abnormal hepatic lipid accumulation in liver at 20 mg/kg, po measured for 2 weeks", "type": "functional, organism-based"}, "[16]": {"test": "Toxicity in wild type C57BL/6 mouse assessed as food intake at 20 mg/kg, po measured for 5 consecutive days", "type": "organism-based", "settings": "in vivo, 120 h, time 5 day"}, "[17]": {"test": "Toxicity in heterozygous hepatocyte-specific Cisd2 knockout C57BL/6 mouse assessed as effect on BUN level in serum at 20 mg/kg, po administered for 2 weeks", "type": "organism-based", "settings": "in vivo, 336 h"}, "Mus musculus [18]": {"tested_on": "Mus musculus", "test": "Anti-NAFLD activity in heterozygous hepatocyte-specific Cisd2 knockout C57BL/6 mouse assessed as reduction in ballooning degeneration of hepatocytes at 20 mg/kg, po measured for 2 weeks by H and E staining based analysis", "type": "functional, organism-based"}, "[19]": {"test": "Toxicity in wild type C57BL/6 mouse assessed as effect on GPT level in serum at 20 mg/kg, po administered for 2 weeks", "type": "organism-based", "settings": "in vivo, 336 h"}, "Mus musculus [20]": {"tested_on": "Mus musculus", "test": "Anti-NAFLD activity in heterozygous hepatocyte-specific Cisd2 knockout C57BL/6 mouse assessed as reduction in accumulation of fat in liver at 20 mg/kg, po measured for 2 weeks by oil red-O staining based analysis", "type": "functional, organism-based"}, "Mus musculus [21]": {"tested_on": "Mus musculus", "test": "Anti-NAFLD activity in heterozygous hepatocyte-specific Cisd2 knockout C57BL/6 mouse assessed as reduction in hepatic steatosis in liver at 20 mg/kg, po measured for 2 weeks by H and E staining based analysis", "type": "functional, organism-based"}, "[22]": {"test": "Toxicity in wild type C57BL/6 mouse assessed as effect on BUN level in serum at 20 mg/kg, po administered for 2 weeks", "type": "organism-based", "settings": "in vivo, 336 h"}, "Mus musculus [23]": {"tested_on": "Mus musculus", "test": "Anti-NAFLD activity in heterozygous hepatocyte-specific Cisd2 knockout C57BL/6 mouse assessed as effect on triglyceride level in serum at 20 mg/kg, po measured for 12 week", "type": "functional, organism-based", "settings": "time 12.0 weeks"}, "[24]": {"test": "Toxicity in heterozygous hepatocyte-specific Cisd2 knockout C57BL/6 mouse assessed as effect on CRE level in serum at 20 mg/kg, po administered for 2 weeks", "type": "organism-based", "settings": "in vivo, 336 h"}, "[25]": {"test": "Toxicity in heterozygous hepatocyte-specific Cisd2 knockout C57BL/6 mouse assessed as effect on AST level in serum at 20 mg/kg, po administered for 2 weeks", "type": "organism-based", "settings": "in vivo, 336 h"}, "[26]": {"test": "Toxicity in heterozygous hepatocyte-specific Cisd2 knockout C57BL/6 mouse assessed as effect on body weight at 20 mg/kg, po measured for 2 weeks", "type": "organism-based", "settings": "in vivo, 336 h"}}, "note": "pEC50: −log10 of the molar value. Calls of active or inactive are those of the source. The rule behind the calls is not given here."}
{"smiles": "COC(=O)c1c(N)sc(C(=O)Nc2ccccc2)c1C", "values": [{"measurement": "remaining at 0.5 h, 5 µM", "setting": "[1]", "result": 63.5, "unit": "%"}, {"measurement": "pEC50", "setting": "[2]", "result": 7.02}]}
{"smiles": "Cc1ccc(NC(=O)c2sc(N)c(C(=O)OCc3ccccc3)c2C)c(C)c1", "values": [{"measurement": "pEC50", "setting": "[2]", "result": "< 5.00"}]}
{"smiles": "CCOC(=O)c1c(N)sc(C(=O)Nc2ccc(C)cc2C)c1C", "values": [{"measurement": "remaining at 0.5 h, 5 µM", "setting": "[1]", "result": 60.6, "unit": "%"}, {"measurement": "pEC50", "setting": "[2]", "result": 6.71}]}
{"smiles": "Cc1ccc(NC(=O)c2sc(N)c(C(=O)CO)c2C)c(C)c1", "values": [{"measurement": "pEC50", "setting": "[2]", "result": 6.09}]}
{"smiles": "COC(=O)c1c(N)sc(C(=O)Nc2ccc(C)cc2C)c1C", "values": [{"measurement": "remaining at 0.5 h, 5 µM", "setting": "[1]", "result": 27.6, "unit": "%"}, {"measurement": "pEC50", "setting": "[2]", "result": 7.34}]}
{"smiles": "COC(=O)c1c(N)sc(C(=O)Nc2ccccc2OC)c1C", "values": [{"measurement": "pEC50", "setting": "[2]", "result": 5.51}]}
{"smiles": "Cc1ccc(NC(=O)c2sc(N)c(C(N)=O)c2C)c(C)c1", "values": [{"measurement": "pEC50", "setting": "[2]", "result": 6.01}]}
{"smiles": "COC(=O)c1c(N)sc(C(=O)Nc2nc3ccccc3s2)c1C", "values": [{"measurement": "pEC50", "setting": "[2]", "result": "< 5.00"}]}
{"smiles": "CC(=O)c1c(N)sc(C(=O)Nc2ccc(F)cc2)c1C", "values": [{"measurement": "remaining at 0.5 h, 5 µM", "setting": "[1]", "result": 49.2, "unit": "%"}, {"measurement": "pEC50", "setting": "[2]", "result": 6.80}]}
{"smiles": "COC(=O)c1c(N)sc(C(=O)Nc2ccc(F)cc2)c1C", "values": [{"measurement": "fold change (FC)", "setting": "Mus musculus [3]", "result": 2}, {"measurement": "Activity", "setting": "Mus musculus [4]", "result": "Active"}, {"measurement": "fold change (FC)", "setting": "Mus musculus [5]", "result": 1.3}, {"measurement": "Activity", "setting": "[6]", "result": "Non-Toxic"}, {"measurement": "Activity", "setting": "[7]", "result": "Non-Toxic"}, {"measurement": "Activity", "setting": "[8]", "result": "Non-Toxic"}, {"measurement": "Activity", "setting": "[9]", "result": "Non-Toxic"}, {"measurement": "Activity", "setting": "[10]", "result": "Non-Toxic"}, {"measurement": "Activity", "setting": "[11]", "result": "Non-Toxic"}, {"measurement": "Activity", "setting": "[12]", "result": "Non-Toxic"}, {"measurement": "Activity", "setting": "[13]", "result": "Non-Toxic"}, {"measurement": "Activity", "setting": "[14]", "result": "Non-Toxic"}, {"measurement": "Activity", "setting": "Mus musculus [15]", "result": "Active"}, {"measurement": "remaining at 0.5 h, 5 µM", "setting": "[1]", "result": 84.9, "unit": "%"}, {"measurement": "pEC50", "setting": "[2]", "result": 7.47}, {"measurement": "Activity", "setting": "[16]", "result": "Non-Toxic"}, {"measurement": "Activity", "setting": "[17]", "result": "Non-Toxic"}, {"measurement": "Activity", "setting": "Mus musculus [18]", "result": "Active"}, {"measurement": "Activity", "setting": "[19]", "result": "Non-Toxic"}, {"measurement": "Activity", "setting": "Mus musculus [20]", "result": "Active"}, {"measurement": "Activity", "setting": "Mus musculus [21]", "result": "Active"}, {"measurement": "Activity", "setting": "[22]", "result": "Non-Toxic"}, {"measurement": "Activity", "setting": "Mus musculus [23]", "result": "Active"}, {"measurement": "Activity", "setting": "[24]", "result": "Non-Toxic"}, {"measurement": "Activity", "setting": "[25]", "result": "Non-Toxic"}, {"measurement": "Activity", "setting": "[26]", "result": "Non-Toxic"}]}
{"smiles": "COC(=O)c1c(N)sc(C(=O)Nc2ccc(OC)cc2)c1C", "values": [{"measurement": "remaining at 0.5 h, 5 µM", "setting": "[1]", "result": 73.6, "unit": "%"}, {"measurement": "pEC50", "setting": "[2]", "result": 7.92}]}
{"smiles": "CC(=O)c1c(N)sc(C(=O)Nc2ccccc2)c1C", "values": [{"measurement": "pEC50", "setting": "[2]", "result": 6.26}]}
{"smiles": "COC(=O)c1c(N)sc(C(=O)Nc2ccc(N(C)C)cc2)c1C", "values": [{"measurement": "remaining at 0.5 h, 5 µM", "setting": "[1]", "result": 54.7, "unit": "%"}, {"measurement": "pEC50", "setting": "[2]", "result": 7.46}]}
{"smiles": "COC(=O)c1c(N)sc(C(=O)Nc2cccnc2)c1C", "values": [{"measurement": "pEC50", "setting": "[2]", "result": 6.18}]}
{"smiles": "Cc1ccc(NC(=O)c2sc(N)c(C(=O)OC(C)C)c2C)c(C)c1", "values": [{"measurement": "pEC50", "setting": "[2]", "result": 5.82}]}
{"smiles": "COC(=O)c1c(N)sc(C(=O)Nc2ccc(C#N)cc2)c1C", "values": [{"measurement": "remaining at 0.5 h, 5 µM", "setting": "[1]", "result": 83.7, "unit": "%"}, {"measurement": "pEC50", "setting": "[2]", "result": 7.09}]}
{"smiles": "CC(=O)c1c(N)sc(C(=O)Nc2ccc(C)cc2C)c1C", "values": [{"measurement": "remaining at 0.5 h, 5 µM", "setting": "[1]", "result": 0, "unit": "%"}, {"measurement": "pEC50", "setting": "[2]", "result": 6.79}]}
